From patent US20260327655A1, “SMALL-MOLECULE REGULATED ALTERNATIVE SPLICING” (priority 2023, published 2026)
Where two headings read alike, the source gives them in different places.

Experiments:
Format in all cases: cell-based
RS1-10 = experiment: Dose-response profiling assay, RS1-10 Flp-In-293 cell line; conditions: 18 hours, FIGS. 9D-9F
Protocol: Single-copy insertion of an switch construct and subsequent cell-line generation was performed in Flp-In-293 cells according to manufacturer's protocols. The RS1-10 sequence fused to a Firefly Luciferase gene was cloned into a Flp-In compatible pcDNA5/FRT expression vector with a CMV promoter and BGH polyadenylation signal. Resulting Flp-In cell line carried a single-copy expression cassette (RSwitch-controlled) integrated into the genome. The RS1-10 Flp-In cell line was cultured in DMEM+10% FBS, collected after trypsinization, and then dispensed into 96-well plates (cell culture-treated). Each well of the plate was seeded with 1.0×10^5 cells in 100 μL culture medium. Subsequently, either DMSO vehicle or a splice modulator compound at specified doses was added to the wells of the plate. Triplicate wells were used for each condition tested in the experiment. Plates were then incubated for 18 hours in a tissue culture incubator (5% CO2, 37° C.). Endpoint analysis was performed by adding 100 uL of a Luciferase substrate, such as Steady-Luc Firefly Luciferase substrate, to each well of the assay plate. The liquid contents of each was transferred to a 96-well plate, mixed again for 2 min on an orbital shaker, and incubated at room temperature for 5 min. Finally, the luminescent signal from each well was measured with a plate reader. Each plotted data point on a graph in a figure represents a mean of 3 wells+/−standard deviation normalized to vehicle controls. A nonlinear regression curve fit of the plotted data points was generated in graphing software.

[1] = test system: RS3-13 minigene (Firefly Luciferase), HEK-293T cells; experiment: Luciferase induction assay, RS3-13 with splice modulator compounds in HEK-293T cells; conditions: Homo sapiens
Protocol: (§1) HEK-293T cells were cultured in DMEM+10% FBS, collected after trypsinization, and then dispensed into 96-well plates (cell culture-treated). Each well of the plate was seeded with 1.0×10^5 cells in 100 μL culture medium. After a 1-hour incubation in a tissue culture incubator (5% CO2, 37 degrees C.), plasmid DNA was complexed with a transfection reagent, such as Lipofectamine 3000, and added to respective wells on the plate. Each well received an equivalent of 100 ng of plasmid DNA complexed with 0.15 μL Lipofectamine. Triplicate wells were used for each condition tested in the experiment. The plasmid utilized in the experiment encoded a CMV promoter upstream of RS3-13 that controlled the expression of a Firefly Luciferase gene followed by a SV40 polyadenylation signal. After a 10-minute incubation at room temperature, either DMSO vehicle or specified compound at specified dose was added to the wells of the plate. Plates were then incubated for 18 hours in a tissue culture incubator. Endpoint analysis was performed by adding 100 uL Steady-Luc Firefly Luciferase substrate to each well of the assay plate. After mixing, the liquid contents of each was transferred to a 96-well plate, mixed again for 2 min on an orbital shaker, and incubated at room temperature for 5 min. Finally, the luminescent signal from each well was measured with a with PerkinElmer Envision plate reader. The results of this assay show RS3-13 responded to the majority of the splice modulator compounds used (FIG. 14D) Bars represent mean+/−standard deviation of 3 wells normalized to vehicle controls.

[2] = test system: RS2-3 minigene (Firefly Luciferase), HEK-293T cells; experiment: Luciferase induction assay, RS2-3 with splice modulator compounds in HEK-293T cells; conditions: Homo sapiens
Protocol: as §1, with “of the RS2-3 variant” for “of RS3-13”, “show RS2-3” for “show RS3-13”, “(FIG. 13C)” for “(FIG. 14D)”

[3] = test system: RS1-10 minigene (Firefly Luciferase), HEK-293T cells; experiment: Luciferase induction assay, RS1-10 with splice modulator compounds in HEK-293T cells; conditions: Homo sapiens
Protocol: as §1, with “upstream of the RS I-10 variant that controlled” for “upstream of RS3-13 that controlled”, “assay show RS1-10 responded to” for “assay show RS3-13 responded to”, “compounds used in a dose responsive manner (FIG. 9C).” for “compounds used (FIG. 14D)”, “manner (FIG. 9C). Bars represent” for “used (FIG. 14D) Bars represent”

[4] = RS3-13, 100 nM, 18 hours, n of 3, read-out: Mean fold-induction of luciferase (relative to vehicle control)
[5] = RS3-13, 1,000 nM, 18 hours, n of 3, read-out: Mean fold-induction of luciferase (relative to vehicle control)
[6] = RS2-3, 100 nM, 18 hours, n of 3, read-out: Mean fold-induction of luciferase (relative to vehicle control)
[7] = RS2-3, 1,000 nM, 18 hours, n of 3, read-out: Mean fold-induction of luciferase (relative to vehicle control)
[8] = RS1-10, 100 nM, 18 hours, n of 3, read-out: Mean fold-induction of luciferase (relative to vehicle control)
[9] = RS1-10, 1,000 nM, 18 hours, n of 3, read-out: Mean fold-induction of luciferase (relative to vehicle control)
[10] = 18 h, read-out: Mean fold-induction of luciferase (relative to vehicle control)

SMILES: Cn1cc2cc(-c3ccc(-c4ccc(C5CN(C6CCOCC6)C5)nn4)c(O)c3)ccc2n1 [22 A, 5-(2-methyl-2H-indazol-5-yl)-2-{6-[1-(oxan-4-yl)azetidin-3-yl]pyridazin-3-yl}phenol]
- fold-induction of luciferase signal, dose response (RS1-10): increase in fold-induction of luciferase signal with increasing concentrations

SMILES: CCN1CC(c2ccc(-c3ccc(-c4cc(C)c5nn(C)cc5c4)cc3O)nn2)C1 [34 A, 5-(2,7-dimethyl-2H-indazol-5-yl)-2-[6-(1-ethylazetidin-3-yl)pyridazin-3-yl]phenol]
- fold-induction of luciferase signal, dose response (RS1-10): increase in fold-induction of luciferase signal with increasing concentrations

SMILES: Cc1cn2nc(-c3ccc(-c4ccc(C5CNC5)nn4)c(O)c3)cc(C)c2n1 [Compound 3A]
- fold induction at 0.1 µM [1, 4]: 1.81
- fold induction at 1 µM [1, 5]: 10.2
- fold induction at 0.1 µM [2, 6]: 2.86
- fold induction at 1 µM [2, 7]: 17.6
- fold induction at 0.1 µM [3, 8]: 31.7
- fold induction at 1 µM [3, 9]: 94.7

SMILES: Cc1cc(-c2ccc(-c3ccc(C4CNC4)nn3)c(O)c2)cc2cn(C)nc12 [Compound 6A]
- fold induction at 0.1 µM [1, 4]: 1.69
- fold induction at 1 µM [1, 5]: 7.94
- fold induction at 0.1 µM [2, 6]: 2.54
- fold induction at 1 µM [2, 7]: 13.9
- fold induction at 0.1 µM [3, 8]: 29.4
- fold induction at 1 µM [3, 9]: 69.6

SMILES: Cc1cn2cc(-c3cc(O)c(-c4ccc(C5CNC5)nn4)cc3F)cc(F)c2n1 [Compound 8A]
- fold induction at 0.1 µM [1, 4]: 2.11
- fold induction at 1 µM [1, 5]: 9.79
- fold induction at 0.1 µM [2, 6]: 4.1
- fold induction at 1 µM [2, 7]: 16
- fold induction at 0.1 µM [3, 8]: 41.5
- fold induction at 1 µM [3, 9]: 79.2

SMILES: Cc1cn2cc(-c3ccc(-c4ccc(C5CNC5)nn4)c(O)c3F)cc(F)c2n1 [Compound 10A]
- fold induction at 0.1 µM [1, 4]: 10.1
- fold induction at 1 µM [1, 5]: 43.6
- fold induction at 0.1 µM [2, 6]: 11.1
- fold induction at 1 µM [2, 7]: 29.2
- fold induction at 0.1 µM [3, 8]: 65.9
- fold induction at 1 µM [3, 9]: 96

SMILES: Cc1cn2cc(-c3ccc(-c4ccc(C5CN(C(C)C)C5)nn4)c(O)c3)cc(F)c2n1 [Compound 15A]
- fold induction at 0.1 µM [1, 4]: 20.6
- fold induction at 1 µM [1, 5]: 54.5
- fold induction at 0.1 µM [2, 6]: 17
- fold induction at 1 µM [2, 7]: 39.4
- fold induction at 0.1 µM [3, 8]: 79
- fold induction at 1 µM [3, 9]: 82

SMILES: CCN1CC(c2ccc(-c3ccc(-c4cn5cc(C)nc5c(C)n4)cc3O)nn2)C1 [Compound 32A]
- fold induction at 0.1 µM [1, 4]: 3.24
- fold induction at 1 µM [1, 5]: 23
- fold induction at 0.1 µM [2, 6]: 5.9
- fold induction at 1 µM [2, 7]: 23.3
- fold induction at 0.1 µM [3, 8]: 53.5
- fold induction at 1 µM [3, 9]: 83.1

SMILES: Cc1cn2cc(-c3ccc(-c4ccc(C5CN(C6CCOC(C)(C)C6)C5)nn4)c(O)c3)cc(F)c2n1 (centres unmarked) [Compound 86A]
- fold induction at 0.1 µM [1, 4]: 7.54
- fold induction at 1 µM [1, 5]: 31.3
- fold induction at 0.1 µM [2, 6]: 7.86
- fold induction at 1 µM [2, 7]: 27.7
- fold induction at 0.1 µM [3, 8]: 56.1
- fold induction at 1 µM [3, 9]: 85.1

SMILES: Cc1cn2cc(-c3ccc(-c4ccc(C5CN(Cc6cocn6)C5)nn4)c(O)c3)cc(F)c2n1 [Compound 101A]
- fold induction at 0.1 µM [1, 4]: 6
- fold induction at 1 µM [1, 5]: 34.2
- fold induction at 0.1 µM [2, 6]: 8.48
- fold induction at 1 µM [2, 7]: 31.5
- fold induction at 0.1 µM [3, 8]: 57.5
- fold induction at 1 µM [3, 9]: 86.8

SMILES: Cc1cn2cc(-c3nc(=O)n4cc(N5CCNCC5)cc(C)c4n3)cc(F)c2n1 [Compound 108B]
- fold induction at 0.1 µM [1, 4]: 1.41
- fold induction at 1 µM [1, 5]: 1.66
- fold induction at 0.1 µM [2, 6]: 1.65
- fold induction at 1 µM [2, 7]: 1.76
- fold induction at 0.1 µM [3, 8]: 1.16
- fold induction at 1 µM [3, 9]: 1.43

SMILES: Cc1cn2cc(-c3nc(=O)n4cc(C5=CCNCC5)ccc4n3)cc(F)c2n1 [Compound 111B]
- fold induction at 0.1 µM [1, 10]: 1.32
- fold induction at 1 µM [1, 10]: 1.63
- fold induction at 0.1 µM [2, 10]: 1.6
- fold induction at 1 µM [2, 10]: 2.97
- fold induction at 0.1 µM [3, 10]: 3.06
- fold induction at 1 µM [3, 10]: 48.4

SMILES: Cc1cn2cc(-c3nc(=O)n4cc(N5CCN[C@@H](C)C5)cc(C)c4n3)cc(F)c2n1 [Compound 117B]
- fold induction at 0.1 µM [1, 4]: 22.8
- fold induction at 1 µM [1, 5]: 55.6
- fold induction at 0.1 µM [2, 6]: 15.2
- fold induction at 1 µM [2, 7]: 39.9
- fold induction at 0.1 µM [3, 8]: 52.1
- fold induction at 1 µM [3, 9]: 73.5

SMILES: Cc1cn2cc(-c3nc(=O)n4cc(N5CCN[C@@H](C)C5)cc(F)c4n3)cc(C)c2n1 [Compound 121B]
- fold induction at 0.1 µM [1, 4]: 9.95
- fold induction at 1 µM [1, 5]: 46
- fold induction at 0.1 µM [2, 6]: 9.41
- fold induction at 1 µM [2, 7]: 28.8
- fold induction at 0.1 µM [3, 8]: 24.6
- fold induction at 1 µM [3, 9]: 73.5

SMILES: Cc1cn2cc(-c3nc(=O)n4cc(N5CCNCC5)ccc4n3)cc(C)c2n1 [Compound 126B]
- fold induction at 0.1 µM [1, 4]: 3.46
- fold induction at 1 µM [1, 5]: 25.2
- fold induction at 0.1 µM [2, 6]: 5.18
- fold induction at 1 µM [2, 7]: 17.8
- fold induction at 0.1 µM [3, 8]: 2.06
- fold induction at 1 µM [3, 9]: 41.5

SMILES: Cc1cc2cc(-c3nc(=O)n4cc(N5CCNC(C)(C)C5)cc(F)c4n3)cc(C)n2n1 [Compound 135B]
- fold induction at 0.1 µM [1, 4]: 5.99
- fold induction at 1 µM [1, 5]: 16.1
- fold induction at 0.1 µM [2, 6]: 7.61
- fold induction at 1 µM [2, 7]: 14.7
- fold induction at 0.1 µM [3, 8]: 16.1
- fold induction at 1 µM [3, 9]: 48.8

SMILES: Cc1cc2cc(-c3ccc(-c4ccc(C5CN(C6CCOCC6)C5)nn4)c(O)c3)ccn2n1 [Compound 192A]
- fold induction at 0.1 µM [1, 4]: 2.18
- fold induction at 1 µM [1, 5]: 13.4
- fold induction at 0.1 µM [2, 6]: 4.97
- fold induction at 1 µM [2, 7]: 22.7
- fold induction at 0.1 µM [3, 8]: 51.3
- fold induction at 1 µM [3, 9]: 70.8
